Tests used:
[1] = system: BH3 binding groove of Bcl-2, Bcl-XL, and Bcl-w; settings: cited from earlier work
[2] = system: wild-type and Bax/Bak-deficient fibroblasts; settings: cited from earlier work
Mcl-1 and Bfl-1 = settings: cited from earlier work
A549 cells = experiment: BH3-M6 and CEP-1612 alone or in combination in A549 cells (MTT, TUNEL, PARP cleavage); assay type: cell-based, human
Description: FIG. 7 is a series of images illustrating BH3-M6 sensitizes A549 cells to the proteasome inhibitor CEP-1612 to induce apoptosis. A549 cells were treated with the indicated concentrations of either drug alone or in combination and then processed for various assays as described in EXPERIMENTAL PROCEDURES. (A) Cell viability as measured by MTT assay after 72 h of treatment, error bars indicate standard deviations of triplicates. (B) apoptosis as determined by TUNEL assay after 48 h of treatment. (C) PARP cleavage after 24 hours of drug treatment.
Release of cytochrome c from isolated mitochondria was measured as described by Takahashi et al. (Takahashi, Y., Karbowski, M., Yamaguchi, H., Kazi, A., Wu, J., Sebti, S. M., Youle, R. J., and Wang, H. G. (2005) Mol Cell Biol 25, 9369-9382) Cell-free caspase-3/-7 activity and the extent of PARP cleavage was determined as described previously. (Kazi, A., Smith, D. M., Zhong, Q., and Dou, Q. P. (2002) Mol Pharmacol 62, 765-771) MTT (3-(4,5-dimethylthiazol-2-yl)-2,5-diphenyltetrazolium bromide) and TUNEL assays were performed according to Kazi et al., both of which are incorporated herein by reference. (Kazi, A., Lawrence, H., Guida, W. C., McLaughlin, M. L., Springett, G. M., Berndt, N., Yip, R. M. L., and Sebti, S. M. (2009) Cell Cycle 8, 1940-1951)
To determine whether BH3-M6 sensitizes cells to apoptosis induced by other stimuli, the inventors treated A549 cells with BH3-M6 and CEP-1612 (Sun, J., Nam, S., Lee, C. S., Li, B., Coppola, D., Hamilton, A. D., Dou, Q. P., and Sebti, S. M. (2001) Cancer Res 61, 1280-1284), either alone or in combination. BH3-M6 and CEP-1612 alone had little effect on cell viability (about 20% and about 28%, respectively) (FIG. 7A) and apoptosis (about 5% and about 8%, respectively) (FIG. 7B). […] The results from FIG. 7C were obtained after about 24 hours of drug treatment, whereas those from FIG. 5C were obtained after about 48 hours of drug treatment.

| SMILES | affinity for BH3 binding groove of Bcl-2, Bcl-XL, and Bcl-w [1] | killing of wild-type vs Bax/Bak-deficient cells [2] | binding to Mcl-1 and Bfl-1 (Mcl-1 and Bfl-1) | inhibition of cell viability (A549 cells; A549, MTT, 72 h) | induction of apoptosis (A549 cells; A549, TUNEL, 48 h) | PARP cleavage (A549 cells; A549, immunoblot, about 24 hours) |
| --- | --- | --- | --- | --- | --- | --- |
| CN(C)CC[C@H](CSc1ccccc1)Nc1ccc(S(=O)(=O)NC(=O)c2ccc(N3CCN(Cc4ccccc4-c4ccc(Cl)cc4)CC3)cc2)cc1[N+](=O)[O-] [ABT-737] | high affinity | kills only wild-type, but not Bax/Bak-deficient cells | only binds weakly | – | – | – |
| CC(C)C[C@@H](C=O)NC(=O)[C@H](CCCN=C(N)N[N+](=O)[O-])NC(=O)C(CCCCCCCCN1C(=O)c2ccccc2C1=O)C1CCCC1 (stereo partly drawn) [CEP-1612] | – | – | – | about 28% | about 8% | but not either drug alone |
